US8889671B2, “Compounds and methods for treating bacterial infections” (AstraZeneca AB, priority 2013, dated 2014)
Like-named read-outs stand apart in the source and are kept apart here.

How the values were obtained:
[1] = molecular target: Escherichia coli DNA gyrase A/B tetramer (Escherichia coli (strain K12), UniProt P0AES4+P0AES6); experiment: DNA gyrase supercoiling activity fluorescence polarisation assay; type: biochemical; conditions: Eco Gyr FP Mean IC50, E. coli DNA gyrase supercoiling, 0.3 mM ATP
How it was run: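 Relaxed triplex-forming plasmid (130 micrograms/mL) supercoiled by 5 nM gyrase A/B tetramer in Tris-HCl pH 7.5 buffer with 4 mM MgCl2 and 0.3 mM ATP, ~30 min, ambient temperature. Quenched with 5′-BODIPY-FL triplex probe at pH 3.5; fluorescence anisotropy read after 60 min. IC50 by nonlinear regression against two control reactions.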

[2] = test system: Escherichia coli; experiment: Susceptibility testing (MIC) Assay 2, broth microdilution; type: cell-based
[3] = test system: Pseudomonas aeruginosa; experiment: as above; type: cell-based; conditions: PAO1, read-out: Pae MIC
[4] = test system: Haemophilus influenzae; experiment: as above; type: cell-based
[5] = test system: Klebsiella pneumoniae; experiment: as above; type: cell-based
[6] = test system: Streptococcus pyogenes; experiment: Susceptibility testing (MIC) Assay 1, broth microdilution; type: cell-based; conditions: Streptococcus pyogenes, in vivo strain, read-out: Spy MIC
[7] = test system: Staphylococcus aureus; experiment: as above; type: cell-based; conditions: Staphylococcus aureus
[8] = test system: Streptococcus pneumoniae; experiment: as above; type: cell-based
[9] = ATCC51907, Haemophilus influenzae, ATCC 51907, in vivo strain, read-out: Hin MIC
[10] = clinical isolate, mucoid, read-out: Kpn MIC
[11] = Staphylococcus aureus in vivo strain, MSQS, read-out: Sau(d) MIC
[12] = in vivo strain, MRQR, read-out: Sau(e) MIC
[13] = in vivo strain (footnote b), read-out: Spn(b) MIC
[14] = in vivo strain (footnote c), read-out: Spn(c) MIC

Structure (SMILES) | IC50 [1] | MIC ([2]; K12, read-out: Eco MIC) | MIC [3] | MIC [4, 9] | MIC [5, 10] | MIC ([6]; Streptococcus pyrgenes) | MIC [7, 11] | MIC [7, 12] | MIC ([7]; serum, read-out: Sau(f) MIC) | MIC [8, 13] | MIC [8, 14] | other results
C[C@@H]1CN2c3c(cc4c(N5CCOC5=O)noc4c3F)CC3(C(=O)NC(=O)NC3=O)[C@H]2[C@H](C)O1 [Example 1, (2R,4S,4aS)-11-Fluoro-2,4-dimethyl-8-(2-oxo-1,3-oxazolidin-3-yl)-1,2,4,4a-tetrahydro-2′H,6H-spiro[1,4-oxazino[4,3-a][1,2]oxazolo[4,5-g]quinoline-5,5′-pyrimidine]-2′,4′,6′(1′H,3′H)-trione] | 1300 nM | 50 µM | > 200 µM | 0.78 µM | > 200 µM | 0.39 µM | 0.39 µM | 3.1 µM | 0.78 µM | 0.78 µM | 0.78 µM | 
C[C@@H]1CN2c3c(cc4c(N5C(=O)OC[C@H]5c5ccncc5)noc4c3F)CC3(C(=O)NC(=O)NC3=O)[C@H]2[C@H](C)O1 [Example 57, (2R,4S,4aS)-11-Fluoro-2,4-dimethyl-8-((R)-2-oxo-4-(pyridin-4-yl)oxazolidin-3-yl)-2,4,4a,6-tetrahydro-1H,1′H-spiro[isoxazolo[4,5-g][1,4]oxazino[4,3-a]quinoline-5,5′-pyrimidine]-2′,4′,6′(3′H)-trione] | 760 nM | 100 µM | > 200 µM | 0.39 µM | > 200 µM | 0.78 µM | 1.6 µM | 6.2 µM | 3.1 µM | 0.78 µM | 1.6 µM | 
C[C@@H]1CN2c3c(cc4c(N5C(=O)OC[C@@H]5CC#N)noc4c3F)CC3(C(=O)NC(=O)NC3=O)[C@H]2[C@H](C)O1 [Example 71, {(4S)-3-[(2R,4S,4aS)-11-Fluoro-2,4-dimethyl-2′,4′,6′-trioxo-1,1′,2,3′,4,4′,4a,6′-octahydro-2′H,6H-spiro[1,4-oxazino[4,3-a][1,2]oxazolo[4,5-g]quinoline-5,5′-pyrimidin]-8-yl]-2-oxo-1,3-oxazolidin-4-yl}acetonitrile] | 160 nM | 50 µM | > 200 µM | 1.6 µM | > 200 µM | 1.6 µM | 3.1 µM | 6.2 µM | 3.1 µM | 1.6 µM | 1.6 µM | 
CO[C@@H](C)[C@@H]1COC(=O)N1c1noc2c(F)c3c(cc12)CC1(C(=O)NC(=O)NC1=O)[C@H]1[C@H](C)O[C@H](C)CN31 [Example 60] | 950 nM | 100 µM | > 200 µM | 1.6 µM | > 200 µM | 1.6 µM | 0.78 µM | 1.6 µM | 1.6 µM | 1.6 µM | 1.6 µM | 
C[C@@H]1CN2c3c(cc4c(N5C(=O)OC[C@@H]5CCCF)noc4c3F)CC3(C(=O)NC(=O)NC3=O)[C@H]2[C@H](C)O1 [Example 30, (2R,4S,4aS)-11-Fluoro-8-((S)-4-(3-fluoropropyl)-2-oxooxazolidin-3-yl)-2,4-dimethyl-2,4,4a,6-tetrahydro-1H,1′H-spiro[isoxazolo[4,5-g][1,4]oxazino[4,3-a]quinoline-5,5′-pyrimidine]-2′,4′,6′(3′H)-trione] | 500 nM | 25 µM | > 200 µM | 0.39 µM | 200 µM | 0.39 µM | < 0.2 µM | 0.78 µM | 0.78 µM | 0.39 µM | 0.39 µM | 
COC[C@@H]1[C@@H](C)OC(=O)N1c1noc2c(F)c3c(cc12)CC1(C(=O)NC(=O)NC1=O)[C@H]1[C@H](C)O[C@H](C)CN31 [Example 80, (2R,4S,4aS)-11-fluoro-8-((4R,5R)-4-(methoxymethyl)-5-methyl-2-oxooxazolidin-3-yl)-2,4-dimethyl-2,4,4a,6-tetrahydro-1H,1′H-spiro[isoxazolo[4,5-g][1,4]oxazino[4,3-a]quinoline-5,5′-pyrimidine]-2′,4′,6′(3′H)-trione] | 170 nM |  |  |  |  |  |  | 32 µg/mL |  |  |  | MIC ([2]; ATCC25922, Escherichia coli, in vivo strain, ATCC 25922, read-out: Eco(b) MIC): > 64 µg/mL; MIC ([2]; ATCC35218, Escherichia coli, ATCC 35218, read-out: Eco(c) MIC): > 64 µg/mL; MIC ([3]; Pseudomonoas aeruginosa): > 64 µg/mL; MIC ([4]; ATCC49247, Haemophilus influenzae, ATCC 49247, read-out: Hin MIC): 1 µg/mL; MIC ([5]; ATCC700603, ATCC 700603, read-out: Kpn(e) MIC): > 64 µg/mL; MIC ([5]; clinical isolate, mucoid, read-out: Kpn(d) MIC): > 64 µg/mL; MIC ([6]; Streptococcus pyrogenes): 16 µg/mL; MIC ([7]; ATCC29213, Staphylococcus aureus, in vivo strain, ATCC 29213, read-out: Sau(d) MIC): 16 µg/mL; MIC ([7]; MRSA, in vivo strain, MRSA, read-out: Sau(f) MIC): 16 µg/mL; MIC ([8]; ATCC49619, Streptococcus pneumoniae, ATCC 49619, read-out: Spn(c) MIC): 32 µg/mL; MIC ([8]; in vivo strain, read-out: Spn(b) MIC): 64 µg/mL
C[C@@H]1CN2c3c(cc4c(N5C(=O)OC[C@H]5c5ncnn5C)noc4c3F)CC3(C(=O)NC(=O)NC3=O)[C@H]2[C@H](C)O1 [Example 69, (2R,4S,4aS)-11-Fluoro-2,4-dimethyl-8-((R)-4-(1-methyl-1H-1,2,4-triazol-5-yl)-2-oxooxazolidin-3-yl)-2,4,4a,6-tetrahydro-1H,1′H-spiro[isoxazolo[4,5-g][1,4]oxazino[4,3-a]quinoline-5,5′-pyrimidine]-2′,4′,6′(3′H)-trione] | 600 nM | > 200 µM | > 200 µM | 3.1 µM | > 200 µM | 3.1 µM | 12 µM | 25 µM | 12 µM | 12 µM | 12 µM | 
C[C@@H]1CN2c3c(cc4c(N5C[C@H](C#N)OC5=O)noc4c3F)CC3(C(=O)NC(=O)NC3=O)[C@H]2[C@H](C)O1 [Example 75, (5R)-3-[(2R,4S,4aS)-11-Fluoro-2,4-dimethyl-2′,4′,6′-trioxo-1,1′,2,3′,4,4′,4a,6′-octahydro-2′H,6H-spiro[1,4-oxazino[4,3-a][1,2]oxazolo[4,5-g]quinoline-5,5′-pyrimidin]-8-yl]-2-oxo-1,3-oxazolidine-5-carbonitrile] | 710 nM | 100 µM | > 200 µM | 0.78 µM | > 200 µM | 0.55 µM | 0.28 µM | 2.2 µM | 0.39 µM | 0.78 µM | 1.62 µM | 
C[C@@H]1CN2c3c(cc4c(N5C[C@H](C)OC5=O)noc4c3F)CC3(C(=O)NC(=O)NC3=O)[C@H]2[C@H](C)O1 [Example 3, (2R,4S,4aS)-11-Fluoro-2,4-dimethyl-8-[(5S)-5-methyl-2-oxo-1,3-oxazolidin-3-yl]-1,2,4,4a-tetrahydro-2′H,6H-spiro[1,4-oxazino[4,3-a][1,2]oxazolo[4,5-g]quinoline-5,5′-pyrimidine]-2′,4′,6′(1′H,3′H)-trione] | 1440 nM | 50 µM | > 200 µM | 1.6 µM | > 200 µM | 0.78 µM | 0.39 µM | 1.6 µM | 1.6 µM | 1.6 µM | 1.6 µM | 
C[C@@H]1CN2c3c(cc4c(N5C(=O)OC[C@H]5Cc5ccccc5)noc4c3F)CC3(C(=O)NC(=O)NC3=O)[C@H]2[C@H](C)O1 [Example 10, (2R,4S,4aS)-8-[(4R)-4-Benzyl-2-oxo-1,3-oxazolidin-3-yl]-11-fluoro-2,4-dimethyl-1,2,4,4a-tetrahydro-2′H,6H-spiro[1,4-oxazino[4,3-a][1,2]oxazolo[4,5-g]quinoline-5,5′-pyrimidine]-2′,4′,6′(1′H,3′H)-trione] | 6700 nM | > 200 µM | > 200 µM | 25 µM | > 200 µM | 25 µM | 6.2 µM | 12 µM | 200 µM | 50 µM | 50 µM | 
